Assay [1] has as its target Serine/threonine-protein kinase/endoribonuclease IRE1 (Homo sapiens) (UniProt O75460). As to the kind of experiment: Inhibition of human recombinant IRE1 at 40 nM in presence of ATP by radiometric assay relative to control.
Assay [2] deals with Casein kinase II subunit alpha (Homo sapiens) (UniProt P68400). Kind of assay: Inhibition of human recombinant CK2a1 at 40 nM related to control ULK1.
Assay [3] has as its target Cyclin-dependent kinase 12 (Homo sapiens) (UniProt Q9NYV4). As to the kind of experiment: Inhibition of human recombinant CRK7 at 40 nM related to control ULK1.
Assay [4] has as its target Interferon-induced, double-stranded RNA-activated protein kinase (Homo sapiens) (UniProt P19525). As to the kind of experiment: Inhibition of human recombinant PKR at 500 nM in presence of ATP by radiometric assay relative to control.
The target of assay [5] is Serine/threonine-protein kinase PLK2 (Homo sapiens) (UniProt Q9NYY3). Kind of assay: Inhibition of human recombinant PLK2 at 500 nM in presence of ATP by radiometric assay relative to control.
Assay [6] has as its target Receptor-type tyrosine-protein kinase FLT3 (Homo sapiens) (UniProt P36888). As to the kind of experiment: Inhibition of human recombinant FLT3 at 500 nM related to control ULK1.
In assay [7] the target is Insulin receptor-related protein (Homo sapiens) (UniProt P14616). As to the kind of experiment: Inhibition of human recombinant IRR at 500 nM related to control ULK1.
In assay [8] the target is Dual specificity mitogen-activated protein kinase kinase 1 (Homo sapiens) (UniProt Q02750). Kind of assay: Inhibition of human recombinant MAP2K1 at 500 nM related to control ULK1.
Assay [9] concerns the target T1, Protein kinase C zeta type (Homo sapiens) (UniProt Q05513).
T1 sequence (whole entry): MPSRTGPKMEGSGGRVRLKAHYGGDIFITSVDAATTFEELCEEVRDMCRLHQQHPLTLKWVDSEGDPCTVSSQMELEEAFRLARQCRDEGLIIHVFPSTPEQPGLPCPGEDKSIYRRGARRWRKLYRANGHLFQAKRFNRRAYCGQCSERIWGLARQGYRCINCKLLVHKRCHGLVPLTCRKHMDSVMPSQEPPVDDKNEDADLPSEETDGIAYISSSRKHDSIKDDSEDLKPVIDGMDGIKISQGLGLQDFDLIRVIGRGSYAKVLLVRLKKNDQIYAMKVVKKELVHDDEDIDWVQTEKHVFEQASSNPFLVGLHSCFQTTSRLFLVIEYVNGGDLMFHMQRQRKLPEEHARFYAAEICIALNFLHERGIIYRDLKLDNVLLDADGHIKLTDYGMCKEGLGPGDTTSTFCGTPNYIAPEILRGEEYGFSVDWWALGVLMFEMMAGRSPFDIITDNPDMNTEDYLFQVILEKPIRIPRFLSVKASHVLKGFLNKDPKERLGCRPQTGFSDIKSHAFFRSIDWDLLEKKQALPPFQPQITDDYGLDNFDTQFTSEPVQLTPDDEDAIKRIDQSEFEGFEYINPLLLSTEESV
Kind of assay: Inhibition of human recombinant PKCz at 500 nM related to control ULK1.

The target in assay [10] is Tyrosine-protein kinase HCK (Homo sapiens) (UniProt P08631). Kind of assay: Inhibition of human recombinant HCK at 15 nM in presence of ATP by radiometric assay relative to control.
Assay [11] concerns the target T2, Serine/threonine-protein kinase Nek2 (Homo sapiens) (UniProt P51955).
T2 sequence (whole entry): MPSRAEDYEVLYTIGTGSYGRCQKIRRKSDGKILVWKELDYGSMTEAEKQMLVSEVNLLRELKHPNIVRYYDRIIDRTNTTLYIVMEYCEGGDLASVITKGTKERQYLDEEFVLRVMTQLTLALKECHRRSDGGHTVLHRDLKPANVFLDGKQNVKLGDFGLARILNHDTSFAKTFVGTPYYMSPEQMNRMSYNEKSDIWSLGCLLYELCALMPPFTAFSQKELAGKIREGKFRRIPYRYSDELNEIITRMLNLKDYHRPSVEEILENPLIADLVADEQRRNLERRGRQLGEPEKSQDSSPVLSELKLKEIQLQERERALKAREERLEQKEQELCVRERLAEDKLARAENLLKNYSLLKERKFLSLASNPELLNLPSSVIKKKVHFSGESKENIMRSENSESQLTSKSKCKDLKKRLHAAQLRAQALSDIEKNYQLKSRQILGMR
Kind of assay: Inhibition of human recombinant NEK2 at 15 nM in presence of ATP by radiometric assay relative to control.

Assay [12] deals with T3, cAMP-dependent protein kinase catalytic subunit PRKX (Homo sapiens) (UniProt P51817).
T3 sequence (whole entry): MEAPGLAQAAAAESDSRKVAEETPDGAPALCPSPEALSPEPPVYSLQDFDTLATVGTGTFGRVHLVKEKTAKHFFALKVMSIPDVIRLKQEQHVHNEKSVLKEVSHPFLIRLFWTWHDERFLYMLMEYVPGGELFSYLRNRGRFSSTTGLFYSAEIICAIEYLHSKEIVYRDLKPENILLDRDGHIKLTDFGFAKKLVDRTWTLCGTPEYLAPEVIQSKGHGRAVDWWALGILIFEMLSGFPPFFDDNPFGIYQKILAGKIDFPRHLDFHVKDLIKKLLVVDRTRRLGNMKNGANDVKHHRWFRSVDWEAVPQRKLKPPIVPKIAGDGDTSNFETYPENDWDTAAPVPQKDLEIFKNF
Kind of assay: Inhibition of human recombinant PRKX at 15 nM in presence of ATP by radiometric assay relative to control.

Assay [13] addresses T4, Testis-specific serine/threonine-protein kinase 3 (Homo sapiens) (UniProt Q96PN8).
T4 sequence (whole entry): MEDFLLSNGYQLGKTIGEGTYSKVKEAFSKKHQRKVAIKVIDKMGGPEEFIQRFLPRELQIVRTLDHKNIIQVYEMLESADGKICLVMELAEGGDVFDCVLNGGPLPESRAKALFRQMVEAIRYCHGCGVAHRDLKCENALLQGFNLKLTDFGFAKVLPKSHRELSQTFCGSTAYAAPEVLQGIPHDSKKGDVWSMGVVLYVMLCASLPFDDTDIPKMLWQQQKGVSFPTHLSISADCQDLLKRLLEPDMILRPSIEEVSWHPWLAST
As to the kind of experiment: Inhibition of human recombinant TSSK3 at 15 nM in presence of ATP by radiometric assay relative to control.

Molecules are shown by their SMILES.

Sequence of Insulin receptor-related protein (Homo sapiens) (P14616 27-742 limits assumed): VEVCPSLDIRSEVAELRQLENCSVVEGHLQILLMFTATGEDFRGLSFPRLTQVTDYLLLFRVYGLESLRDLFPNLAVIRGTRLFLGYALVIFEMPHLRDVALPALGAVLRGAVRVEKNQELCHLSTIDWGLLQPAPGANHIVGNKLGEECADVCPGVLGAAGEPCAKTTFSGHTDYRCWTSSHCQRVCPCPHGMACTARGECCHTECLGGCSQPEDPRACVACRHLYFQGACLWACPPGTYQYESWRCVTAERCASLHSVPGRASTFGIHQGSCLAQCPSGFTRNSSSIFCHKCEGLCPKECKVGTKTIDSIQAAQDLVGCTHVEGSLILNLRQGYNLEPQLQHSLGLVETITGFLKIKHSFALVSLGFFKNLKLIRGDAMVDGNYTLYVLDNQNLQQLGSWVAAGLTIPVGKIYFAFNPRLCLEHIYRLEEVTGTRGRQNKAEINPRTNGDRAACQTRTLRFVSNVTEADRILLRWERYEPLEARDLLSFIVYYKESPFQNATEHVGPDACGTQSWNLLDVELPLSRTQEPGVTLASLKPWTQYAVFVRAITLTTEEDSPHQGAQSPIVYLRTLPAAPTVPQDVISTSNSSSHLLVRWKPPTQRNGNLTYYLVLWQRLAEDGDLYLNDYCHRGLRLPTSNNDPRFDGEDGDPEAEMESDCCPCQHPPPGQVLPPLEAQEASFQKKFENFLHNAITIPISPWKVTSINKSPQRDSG
Sequence of Insulin receptor-related protein (Homo sapiens) (P14616 747-1297 limits assumed): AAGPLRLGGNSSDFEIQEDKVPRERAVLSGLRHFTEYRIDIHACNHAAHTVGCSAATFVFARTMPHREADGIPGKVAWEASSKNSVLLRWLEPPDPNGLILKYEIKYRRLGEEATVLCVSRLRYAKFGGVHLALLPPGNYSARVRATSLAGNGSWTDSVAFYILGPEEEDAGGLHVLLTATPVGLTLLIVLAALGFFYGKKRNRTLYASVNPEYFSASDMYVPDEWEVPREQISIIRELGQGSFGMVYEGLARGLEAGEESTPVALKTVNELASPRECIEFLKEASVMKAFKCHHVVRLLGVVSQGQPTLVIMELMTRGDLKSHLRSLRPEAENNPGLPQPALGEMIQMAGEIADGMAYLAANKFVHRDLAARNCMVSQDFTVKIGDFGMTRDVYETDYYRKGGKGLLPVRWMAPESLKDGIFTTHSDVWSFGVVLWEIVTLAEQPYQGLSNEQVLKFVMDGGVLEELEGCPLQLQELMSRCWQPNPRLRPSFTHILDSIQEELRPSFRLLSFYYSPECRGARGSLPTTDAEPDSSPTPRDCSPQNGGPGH
Sequence of Interferon-induced, double-stranded RNA-activated protein kinase (Homo sapiens) (P19525 whole entry): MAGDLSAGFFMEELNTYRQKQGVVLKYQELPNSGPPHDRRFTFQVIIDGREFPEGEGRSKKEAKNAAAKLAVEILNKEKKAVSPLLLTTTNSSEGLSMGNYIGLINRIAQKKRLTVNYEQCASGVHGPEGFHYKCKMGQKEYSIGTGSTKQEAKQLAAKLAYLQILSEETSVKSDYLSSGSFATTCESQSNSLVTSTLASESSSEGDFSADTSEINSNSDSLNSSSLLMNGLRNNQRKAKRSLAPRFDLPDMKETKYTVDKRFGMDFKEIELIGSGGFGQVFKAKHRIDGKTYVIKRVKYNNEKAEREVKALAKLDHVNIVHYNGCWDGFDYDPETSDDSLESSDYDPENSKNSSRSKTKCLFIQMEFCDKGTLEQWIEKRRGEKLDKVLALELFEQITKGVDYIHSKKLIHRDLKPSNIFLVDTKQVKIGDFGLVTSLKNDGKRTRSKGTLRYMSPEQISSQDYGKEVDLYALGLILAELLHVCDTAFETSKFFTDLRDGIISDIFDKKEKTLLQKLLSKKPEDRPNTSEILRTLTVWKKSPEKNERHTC
Sequence of Tyrosine-protein kinase HCK (Homo sapiens) (P08631 2-526 limits assumed): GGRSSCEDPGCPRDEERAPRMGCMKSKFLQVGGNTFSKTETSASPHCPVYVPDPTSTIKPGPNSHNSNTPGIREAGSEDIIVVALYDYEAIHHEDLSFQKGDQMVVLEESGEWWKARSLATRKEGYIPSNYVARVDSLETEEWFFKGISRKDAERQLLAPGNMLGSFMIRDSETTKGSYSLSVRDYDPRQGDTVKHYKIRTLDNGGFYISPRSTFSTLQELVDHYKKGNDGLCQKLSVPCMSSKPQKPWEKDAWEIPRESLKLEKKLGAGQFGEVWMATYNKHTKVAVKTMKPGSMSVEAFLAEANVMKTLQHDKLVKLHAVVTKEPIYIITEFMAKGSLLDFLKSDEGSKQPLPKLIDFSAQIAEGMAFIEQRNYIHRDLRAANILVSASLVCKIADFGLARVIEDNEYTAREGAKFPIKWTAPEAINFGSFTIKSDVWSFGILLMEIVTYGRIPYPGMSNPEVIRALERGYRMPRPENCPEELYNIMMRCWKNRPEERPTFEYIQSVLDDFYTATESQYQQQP
Sequence of Dual specificity mitogen-activated protein kinase kinase 1 (Homo sapiens) (Q02750 whole entry): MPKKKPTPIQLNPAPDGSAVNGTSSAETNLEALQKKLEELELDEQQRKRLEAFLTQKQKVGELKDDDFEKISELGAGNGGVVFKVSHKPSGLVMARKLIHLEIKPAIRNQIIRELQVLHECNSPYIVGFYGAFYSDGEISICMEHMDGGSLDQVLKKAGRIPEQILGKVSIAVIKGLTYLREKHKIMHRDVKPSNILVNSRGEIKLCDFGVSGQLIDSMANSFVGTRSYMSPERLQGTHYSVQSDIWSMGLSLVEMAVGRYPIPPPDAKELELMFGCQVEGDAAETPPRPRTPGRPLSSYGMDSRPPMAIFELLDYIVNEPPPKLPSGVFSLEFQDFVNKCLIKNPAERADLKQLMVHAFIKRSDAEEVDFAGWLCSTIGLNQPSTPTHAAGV
Sequence of Cyclin-dependent kinase 12 (Homo sapiens) (Q9NYV4 whole entry, looked up): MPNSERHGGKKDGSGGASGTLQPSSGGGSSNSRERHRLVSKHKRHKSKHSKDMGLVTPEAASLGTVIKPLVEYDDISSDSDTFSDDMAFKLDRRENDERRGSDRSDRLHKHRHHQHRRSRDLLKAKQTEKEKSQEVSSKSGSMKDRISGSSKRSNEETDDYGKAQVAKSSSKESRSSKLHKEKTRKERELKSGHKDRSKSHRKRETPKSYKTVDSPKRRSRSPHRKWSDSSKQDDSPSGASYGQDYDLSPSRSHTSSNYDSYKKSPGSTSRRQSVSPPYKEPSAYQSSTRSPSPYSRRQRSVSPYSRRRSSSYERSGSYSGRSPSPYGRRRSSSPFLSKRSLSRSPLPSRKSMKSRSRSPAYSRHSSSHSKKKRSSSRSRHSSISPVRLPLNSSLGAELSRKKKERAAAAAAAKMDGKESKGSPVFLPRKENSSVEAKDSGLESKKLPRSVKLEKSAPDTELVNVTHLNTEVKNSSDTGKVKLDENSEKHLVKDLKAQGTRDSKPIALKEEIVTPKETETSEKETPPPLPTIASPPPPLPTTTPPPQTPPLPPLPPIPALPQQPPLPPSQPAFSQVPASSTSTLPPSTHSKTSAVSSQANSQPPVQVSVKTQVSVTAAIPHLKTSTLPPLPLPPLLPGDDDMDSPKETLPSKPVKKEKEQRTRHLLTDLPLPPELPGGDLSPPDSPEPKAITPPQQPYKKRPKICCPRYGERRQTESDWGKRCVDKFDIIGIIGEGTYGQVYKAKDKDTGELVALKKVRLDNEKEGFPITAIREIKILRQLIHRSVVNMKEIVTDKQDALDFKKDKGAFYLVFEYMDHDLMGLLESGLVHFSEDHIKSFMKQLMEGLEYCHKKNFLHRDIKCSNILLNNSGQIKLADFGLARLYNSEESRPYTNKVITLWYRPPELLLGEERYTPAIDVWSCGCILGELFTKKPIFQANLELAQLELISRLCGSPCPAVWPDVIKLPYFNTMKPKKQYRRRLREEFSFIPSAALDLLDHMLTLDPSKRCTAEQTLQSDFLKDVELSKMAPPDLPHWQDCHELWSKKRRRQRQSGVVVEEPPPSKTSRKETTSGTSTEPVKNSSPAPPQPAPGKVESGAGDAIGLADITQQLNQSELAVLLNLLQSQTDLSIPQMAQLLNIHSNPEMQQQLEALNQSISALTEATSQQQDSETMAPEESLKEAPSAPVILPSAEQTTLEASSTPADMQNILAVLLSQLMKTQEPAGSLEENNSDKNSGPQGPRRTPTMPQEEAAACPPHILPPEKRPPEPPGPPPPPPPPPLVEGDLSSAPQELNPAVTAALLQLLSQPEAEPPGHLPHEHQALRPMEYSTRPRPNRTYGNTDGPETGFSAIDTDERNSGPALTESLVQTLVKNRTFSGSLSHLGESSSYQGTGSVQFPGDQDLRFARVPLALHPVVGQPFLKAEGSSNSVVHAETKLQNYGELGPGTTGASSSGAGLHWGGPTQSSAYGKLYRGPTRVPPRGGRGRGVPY
Sequence of Serine/threonine-protein kinase PLK2 (Homo sapiens) (Q9NYY3 whole entry, looked up): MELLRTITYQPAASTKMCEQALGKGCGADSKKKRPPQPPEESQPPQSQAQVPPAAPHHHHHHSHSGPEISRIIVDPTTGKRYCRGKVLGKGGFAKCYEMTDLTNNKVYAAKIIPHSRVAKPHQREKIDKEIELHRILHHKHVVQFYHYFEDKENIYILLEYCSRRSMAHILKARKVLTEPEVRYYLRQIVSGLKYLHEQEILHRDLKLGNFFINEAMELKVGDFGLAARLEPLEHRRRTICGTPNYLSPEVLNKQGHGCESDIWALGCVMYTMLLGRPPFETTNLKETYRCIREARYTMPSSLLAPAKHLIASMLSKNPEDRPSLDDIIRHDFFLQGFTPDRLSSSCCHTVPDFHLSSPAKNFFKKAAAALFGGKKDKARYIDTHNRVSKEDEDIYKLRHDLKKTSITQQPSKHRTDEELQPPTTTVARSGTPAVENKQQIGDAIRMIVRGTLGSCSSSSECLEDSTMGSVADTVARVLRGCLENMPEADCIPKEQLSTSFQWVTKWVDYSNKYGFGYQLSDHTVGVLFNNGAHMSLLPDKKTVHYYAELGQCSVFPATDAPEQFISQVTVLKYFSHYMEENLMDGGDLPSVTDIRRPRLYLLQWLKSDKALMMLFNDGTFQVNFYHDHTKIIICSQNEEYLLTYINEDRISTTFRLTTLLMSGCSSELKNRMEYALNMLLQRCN

For orientation: inhibition means how much of the control response was suppressed. `O=C(N[C@@H](C1CC1)C(F)(F)F)c1cc(-c2cnn3cc(-c4ccc(F)cc4)cnc23)cs1`: the inhibition in assay [1] stood at 0%. Moreover, the fold change (FC) in assay [2] and in assay [3] was 0.1 each time.

In the case of `CNC(=O)c1ccccc1Oc1nc(Nc2cc(OC)c(OC)c(OC)c2)ncc1Br`, the inhibition in [4] and in assay [5] was 4% throughout. Further, the fold change (FC) in assay [6] is 0.77; in assay [7] it was 0.12; in assay [8], 0; in [9], 0.

For `CC(C)[C@H](NC(=O)c1cc(-c2cnn3cc(-c4ccc(OCCN5CCCCC5)cc4)cnc23)cs1)C(F)(F)F`, the inhibition in assay [10] came to 26%; in assay [11], 12%; in assay [12] it was 16%; in assay [13], 14%.

The record behind these values is ChEMBL document CHEMBL5653631, “A Potent and Selective ULK1 Inhibitor Suppresses Autophagy and Sensitizes Cancer Cells to Nutrient Stress” (iScience, 2018).
